Reference: PubChem BioAssay AID1963597 (National Center for Advancing Translational Sciences (NCATS), 2024)

Tested on: human liver microsomes, metabolic stability half-life
Assay: NCATS Human Liver Microsomal (HLM) Stability Profiling
Settings: higher = more stable; screened at 1 µM (by protocol)
Summary of the method: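 Half-life derived from parent loss over 0–60 min (0, 5, 10, 15, 30, 60 min) at 37 °C. Incubations: 0.5 mg/mL microsomes, 1 µM test article, NADPH regeneration, pH 7.4 phosphate; quenched in acetonitrile containing albendazole, analysed by MS.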

First: CC(C)NC(=O)COc1cccc(-c2nc(Nc3ccc4[nH]ncc4c3)c3ccccc3n2)c1
Second: O=C(O)c1ccc2c(c1)nc(Nc1cccc(Cl)c1)c1ccncc12
The half-life of the first is 3.5-fold lower: 23.4 min for the first, 82.5 min for the second.

First: O=C(Nc1nnc(-c2ccc3c(c2)OCCO3)o1)C1CCCCC1
Second: Cc1ccc2nc(-c3cc(NC(=O)c4ccc5c(c4)OCCO5)ccc3Cl)oc2c1
The half-life of the first is 110-fold lower: 0.57 min for the first, 63.3 min for the second.

Going from `Cn1ncc(Cl)c1-c1cc(C(=O)N[C@H](CN)Cc2ccc(F)c(F)c2)sc1Cl` to `Cc1cc(CN)cc(C)c1NC(=O)c1ccc(-c2cc(Cl)ccc2Cl)o1`, the half-life rises from 109 min to > 120 min.

First: NC(=O)N1c2ccccc2C=Cc2ccccc21
Second: O=c1c(-c2ccccc2)c1-c1ccccc1
The half-life of the first is higher: > 120 min for the first, 3.57 min for the second.

`NC(=O)c1ccc(Cc2c(-c3cccc(-c4ccccc4)c3)[nH]n(-c3nc(C(=O)O)cs3)c2=O)cc1` and `CC1(c2ccccc2)N(Cc2ccccc2)C(=O)OC12CCN(Cc1ccc(C(=O)O)cc1)CC2` (stereo unspecified) cannot be ordered by half-life: > 120 min for the first, > 120 min for the second.

Going from `O=C(O)Cn1nnc(-c2cc(N3CCC(Oc4cc(F)ccc4Br)CC3)no2)n1` to `COc1cc(C(C)=O)ccc1OCCCN1CCC(c2noc3cc(F)ccc23)CC1`, the half-life falls from > 120 min to 25.1 min.

Compared with `CCCCCCCCC(=O)NCc1ccc(O)c(OC)c1`, `CCOc1ccc(CNC(=O)Cn2c(=O)c3cccn3c3ccc(F)cc32)cc1OC` is 22-fold higher in half-life: 3.71 min for the first, 80.7 min for the second.

`O=C(NCc1ccc(OC(F)(F)F)cc1)C1c2c(F)cccc2C(=O)N1CCc1ccccn1` (stereo unspecified) and `CCOc1ccc(-n2c([C@@H](C)N(Cc3cccnc3)C(=O)Cc3ccc(OC(F)(F)F)cc3)nc3ncccc3c2=O)cc1` are within 1.5-fold of each other in half-life: 6.61 min for the first, 8.23 min for the second.

Going from `COc1cccc(C(=O)Nc2nc(-c3nnn(-c4ccccc4C(F)(F)F)c3C)ns2)c1` to `CNc1nccc(-c2cccnc2Oc2cc(C(=O)Nc3cccc(C(F)(F)F)c3)ccc2C)n1`, the half-life falls from > 120 min to 11.3 min.

`CCN1CCc2nc(N)oc2CC1` and `CCN1CCN(C(=O)c2cc(-c3ccc(F)cc3)nc3c2cnn3C)CC1` are within 1.5-fold of each other in half-life: 112 min for the first, 99.2 min for the second.

Going from `Cn1c(=O)c2c(ncn2CCO)n(C)c1=O` to `CCc1nn(CCCN2CCN(c3cccc(Cl)c3)CC2)c(=O)n1CCOc1ccccc1`, the half-life falls from > 120 min to 0.98 min.

First: C[C@]12CC[C@@H]3c4ccc(O)cc4CC[C@H]3[C@@H]1C[C@@H](O)[C@@H]2O
Second: COc1ccc2c3c1O[C@H]1[C@@H](O)C=C[C@H]4[C@@H](C2)N(C)CC[C@@]341
The half-life of the first is higher: > 120 min for the first, 112 min for the second.

`COc1cc2ncnc(Nc3cc(Br)c(O)c(Br)c3)c2cc1OC` and `COc1cc(Nc2ncc3c(n2)-c2ccc(Cl)cc2C(c2c(F)cccc2OC)=NC3)ccc1C(=O)O` cannot be ordered by half-life: > 120 min for the first, > 120 min for the second.

Compared with `CC(=O)N1CCN([C@H]2CCN(C(=O)N(C)[C@H](C)c3cc(C(F)(F)F)cc(C(F)(F)F)c3)[C@@H](c3ccc(F)cc3C)C2)CC1`, `O=C(NC1(c2ccccc2)CC1)c1c(CN2CCC(N3CCCCC3)CC2)c(-c2cccc(C(F)(F)F)c2)nc2cc(Br)ccc12` is 2.2-fold higher in half-life: 12.8 min for the first, 28.1 min for the second.

First: C/C(=C(/OCCOc1ccc(Cl)cc1)c1ccc(Cl)cc1Cl)n1ccnc1
Second: Clc1cccc(C(c2ccc3nc[nH]c3c2)n2ccnc2)c1 (stereo unspecified)
The half-life of the first is lower: 10.1 min for the first, > 120 min for the second.

First: C1N2CN3CN1CN(C2)C3
Second: O=C1CC[C@H](C(=O)N2CCCCC2)N1
The half-life of the first is lower: 30.5 min for the first, > 120 min for the second.

First: C[C@@H]1C[C@H]2[C@@H]3CCC4=CC(=O)C=C[C@]4(C)[C@@]3(F)[C@@H](O)C[C@]2(C)[C@H]1C(=O)CO
Second: CCCCC(=O)O[C@]1(C(=O)CO)[C@@H](C)C[C@H]2[C@@H]3CCC4=CC(=O)C=C[C@]4(C)[C@@]3(F)[C@@H](O)C[C@@]21C
The half-life of the first is 13-fold higher: 57.3 min for the first, 4.35 min for the second.

`CCCCNc1ncc(C(=O)NCc2ccc(-n3ccnc3)cc2)c(NC2CCC(O)CC2)n1` (stereo unspecified) and `N#Cc1c[nH]c2c(C(=O)N3CCN(CCc4ccc(F)cc4)CC3)cccc12` are within 1.5-fold of each other in half-life: 33 min for the first, 29.8 min for the second.

`CC(C)CC(N(C)C)C1(c2ccc(Cl)cc2)CCC1` (stereo unspecified) and `CC(C)NC(=O)c1ccc(C=O)cc1` are within 1.5-fold of each other in half-life: 3.57 min for the first, 3.1 min for the second.

`CCCSP(=S)(OCC)Oc1ccc(SC)cc1` (stereo unspecified) and `CCN(CC)CCOc1ccc2c(c1)C(=O)c1cc(OCCN(CC)CC)ccc1-2` cannot be ordered by half-life: > 120 min for the first, > 120 min for the second.

Compared with `Cc1cccc(C)c1NC(=O)Nc1cccs1`, `Cc1cc(C)c(/C=C2\C(=O)Nc3ccccc32)[nH]1` is 7.3-fold lower in half-life: 80.6 min for the first, 11 min for the second.

`CNP(=O)(OC)Oc1ccc(C(C)(C)C)cc1Cl` (stereo unspecified) and `CC(C)(C)c1ccc(CNC(=S)NCc2ccc(NS(C)(=O)=O)c(F)c2)cc1` are within 1.5-fold of each other in half-life: 47.5 min for the first, 43 min for the second.

Going from `CCN(Cc1ccncc1)C(=O)[C@@H](CO)c1ccccc1` to `O=C(O)Cc1sc(-c2ccccc2)nc1-c1ccc(Cl)cc1`, the half-life falls from > 120 min to 2.82 min.

`Cc1onc(-c2ccccc2)c1-c1ccc(S(N)(=O)=O)cc1` and `N#Cc1ccc(-c2ccc(S(=O)(=O)Nc3cccc(N)n3)cc2)cc1` cannot be ordered by half-life: > 120 min for the first, > 120 min for the second.

First: Cc1nc2c3ccccc3nc(NNC(=O)CCC(=O)N3CCN(c4cccc(Cl)c4)CC3)n2n1
Second: CCNC1(C(N)=O)CN(c2nc(C)nc3c(-c4ccc(Cl)cc4)c(-c4ccccc4Cl)nn23)C1
The half-life of the first is 1.9-fold lower: 10.9 min for the first, 20.5 min for the second.

`COC(=O)/C=C\C(=O)OC` and `C/C=C(/C(=C/C)c1ccc(OC(C)=O)cc1)c1ccc(OC(C)=O)cc1` cannot be ordered by half-life: > 120 min for the first, > 120 min for the second.

`Cc1cc(C)cc(-c2cnc3cc(Cl)c(-c4cccc(O)c4)cc3c2OCCCN)c1` and `COc1ccc(C(=O)NC(c2ccccc2Cl)c2cc(Cl)c3cccnc3c2O)cc1` (stereo unspecified) are within 1.5-fold of each other in half-life: 25.3 min for the first, 37.1 min for the second.

Going from `CO[C@@H](Cc1ccc(OCCc2nc(-c3ccccc3)oc2C)c2ccsc12)C(=O)O` to `CC(C)Oc1ccc2c(=O)c(-c3ccccc3)coc2c1`, the half-life falls from 72.2 min to 16.1 min (4.5-fold).

First: CCOC(=O)c1c(C)nn(-c2cccc([N+](=O)[O-])c2)c1C
Second: Cc1ccc(-c2cc3ncc(C(=O)c4cc([N+](=O)[O-])ccc4O)cn3n2)cc1
The half-life of the first is 2.4-fold lower: 2.08 min for the first, 4.91 min for the second.

Compared with `O=C1c2ccccc2C(=O)c2c(O)c(O)cc(O)c21`, `CC(=O)c1ccc(O)c(C(N)=O)c1` is higher in half-life: 59.8 min for the first, > 120 min for the second.

First: CN1CC(=O)N/C1=N/C(=O)Nc1cccc(Cl)c1
Second: Cc1c(C(=O)Nc2cccc(C(F)(F)F)c2)cc(-c2ccccc2)n1CCCN1CCOCC1
The half-life of the first is 3-fold higher: 24.1 min for the first, 8.06 min for the second.

Going from `O=C(OCC(O)CO)c1ccccc1Nc1ccnc2c(C(F)(F)F)cccc12` (stereo unspecified) to `C[C@@H](Oc1cc(-n2cnc3ccc(OC4CCN(C)CC4)cc32)sc1C(N)=O)c1ccccc1C(F)(F)F`, the half-life falls from 34.6 min to 8.99 min (3.8-fold).

Going from `CCC(=C(c1ccccc1)c1ccc(OCCN(C)C)cc1)c1ccccc1` to `CCC(=O)c1ccc2c(c1)N(CCCN(C)C)c1ccccc1S2`, the half-life falls from 94.5 min to 15.4 min (6.1-fold).

Compared with `COc1cc(N2CCOCC2)ccc1NC(=O)c1csc(-c2cccnc2)n1`, `COC1CCN(C(=O)c2cc(Cc3n[nH]c(=O)c4ccccc34)ccc2F)CC1` is 2.5-fold higher in half-life: 30.2 min for the first, 76.1 min for the second.

Going from `CN(C)N(C)C(=O)[C@@]1(Cc2ccccc2)CCCN(C(=O)[C@@H](Cc2c[nH]c3ccccc23)NC(=O)C(C)(C)N)C1` to `CCN1CCCC1CNC(=O)C(O)(c1ccccc1)c1ccccc1` (stereo unspecified), the half-life rises from 12.6 min to > 120 min.

Compared with `Cc1c(NC(=O)OCC2COCCN2)cn2ncnc(Nc3ccc4c(cnn4Cc4cccc(F)c4)c3)c12` (stereo unspecified), `CC1=C(C(=O)Nc2cc3cn[nH]c3cc2F)C(c2ccc(Cl)cc2F)N=C(c2ccnc(Cl)c2)N1` (stereo unspecified) is lower in half-life: > 120 min for the first, 14.2 min for the second.

Going from `CCOc1ccc(NS(=O)(=O)c2ccc(N)cc2)nn1` to `Oc1ccc(-c2cnc3ccc(NCc4ccco4)nn23)cc1`, the half-life falls from > 120 min to 9.45 min.

Going from `C(#Cc1cccc(CN2CCOCC2)c1)CCN1CCCCC1` to `c1ccc(-c2cnc(Nc3ccc(OCCN4CCCC4)cc3)s2)cc1`, the half-life falls from > 120 min to 103 min.

First: O=C(CSc1nnc(-c2cccc(F)c2)c(-c2cccc(F)c2)n1)NC1CCCCC1
Second: NC1(c2ccc(-c3nc4ccn5c(=O)[nH]nc5c4cc3-c3ccccc3)cc2)CCC1
The half-life of the first is 7.7-fold lower: 10.8 min for the first, 83 min for the second.

`COc1ccc(CCO[C@@H]2CCCC[C@H]2N2CC[C@@H](O)C2)cc1OC` and `COc1cc(C(=O)NC2CCCNC2)cc(OC)c1OC` (stereo unspecified) cannot be ordered by half-life: > 120 min for the first, > 120 min for the second.

First: COc1cnc(-c2ccc(Cn3c(CC(C)(C)C(=O)O)c(SC(C)(C)C)c4cc(OC[C@@H]5Cc6ccccc6N5C(C)=O)ccc43)cc2)nc1
Second: CC(C)(C)Sc1c(CC(C)(C)C(=O)O)n(Cc2ccc(Cl)cc2)c2ccc(OCc3ccc4ccccc4n3)cc12
The half-life of the first is 2.8-fold lower: 12.1 min for the first, 34 min for the second.

Compared with `O=C(O)c1ccc[n+]([O-])c1`, `COc1ccc2c(c1)CC[C@@H](CN(C)CC(=O)O)[C@H]2c1ccccc1` is higher in half-life: 106 min for the first, > 120 min for the second.

First: CC1(C)O[C@H]2CC(=O)OC[C@]23[C@H]2CC[C@@]4(C)[C@H](c5ccoc5)OC(=O)[C@H]5O[C@]54[C@]2(C)C(=O)C[C@@H]13
Second: CCCCC(=O)OCC(=O)[C@H]1[C@H](C)C[C@H]2[C@@H]3C[C@H](F)C4=CC(=O)C=C[C@]4(C)[C@@]3(F)[C@@H](O)C[C@@]21C
The half-life of the first is 2.6-fold higher: 13.4 min for the first, 5.18 min for the second.

Compared with `COc1cc2c(cc1OC)CN(C(=O)[C@H](C)N[C@@H](CCc1ccccc1)C(=O)O)[C@H](C(=O)O)C2`, `C=CCc1ccccc1OCC(O)CNC(C)C` (stereo unspecified) is lower in half-life: > 120 min for the first, 22 min for the second.

Going from `Cc1nc2c(-c3cnc(N)nc3)nc(N3CCOCC3)nc2n1C(C)C` to `Cc1ccc2c(c1)c1c(n2CCc2ccc(C)nc2)CCN(C)C1`, the half-life falls from > 120 min to 8.67 min.

`O=c1[nH]c(=O)n([C@H]2C[C@H](O)[C@@H](CO)O2)cc1C(F)(F)F` and `CC1(C)C(=O)N(c2ccc(C#N)c(C(F)(F)F)c2)C(=S)N1c1ccc(C(N)=O)c(F)c1` cannot be ordered by half-life: > 120 min for the first, > 120 min for the second.

`CCOc1cc(=O)n2c(c1C(=O)Nc1ccc(C#N)cc1)CCCC2` and `O=C(CCCN1CCC(n2c(=O)[nH]c3ccccc32)CC1)c1ccc(F)cc1` cannot be ordered by half-life: > 120 min for the first, > 120 min for the second.

`C=C1C(=O)O[C@@H]2[C@H]3O[C@]3(C)CC/C=C(\C)CC[C@@H]12` and `C[C@H]1COc2c(C3(N)CC3)c(F)cc3c(=O)c(C(=O)O)cn1c23` cannot be ordered by half-life: > 120 min for the first, > 120 min for the second.

`Nc1ncnc2c1ncn2Cc1c(F)cccc1Cl` and `NC(=Nc1ccc(CCNCc2cccc(Cl)c2)cc1)c1cccs1` cannot be ordered by half-life: > 120 min for the first, > 120 min for the second.

First: Cc1nc(NC(=O)N2CCCC2C(N)=O)sc1-c1ccnc(C(C)(C)C(F)(F)F)c1 (stereo unspecified)
Second: O=C1c2ccccc2S(=O)(=O)N1CCCCN1CCN(c2ncccn2)CC1
The half-life of the first is higher: > 120 min for the first, 24.5 min for the second.

`c1ccc(C2CC2)c(OCC2=NCCN2)c1` was tested, and the half-life was > 120 min.
